# Measurements: patent US9182397B2, “Immunoassay for detecting antibiotics” (DSM IP ASSETS B.V., priority 2011, dated 2015)
# System: Penicillin binding protein purified from Bacillus stearothermophilus
# Assay: Sensitivity of the test device for different antibiotics (Example 23)
# Parameters: key: 0: no intensity; 1: low intensity; 2: medium intensity; 3: high intensity
# Protocol: A nitrocellulose HF90 membrane (Millipore; length 25 mm) was used as a detection region. The membrane was glued to a polystyrene laminated card (thickness 0.254 mm) 8 mm from the proximal end of the card. Next, the detection zone and control zone were applied onto the nitrocellulose membrane. The detection zone was applied by dispensing 1 mg/ml of a 7ACA-spacer-BSA conjugate in 20 mM KPO4-buffer (pH 7.5) with a Biodot Dispense workstation XYZ 3050 with frontline at 0.2 μl/cm. The control zone was applied by dispensing 0.15 mg/ml of an anti-IgY antibody in 20 mM KPO4-buffer (pH 7.5) comprising 0.675 mg/ml BSA, 5% w/v saccharose and 20 mM NaCl with a Biodot Dispense workstation XYZ 3050 with frontline at 0.8 μl/cm. After drying of the zones, the nitrocellulose membrane was blocked by spraying a solution comprising 10 mM Tris buffer (pH 8) comprising 2% w/v BSA and 0.05% w/v Tween-20 using a Biodot Dispense workstation XYZ 3050 with airjet 3×. The solution was sprayed onto the membrane at a distance of 2 mm below the detection zone. Thereafter, the sample receiving region (VF2 membrane from Millipore; length 1 cm) was glued at the proximal end of the card overlapping 2 mm with the nitrocellulose membrane. The absorbing region (10038 membrane from Millipore; length 20 mm) was glued at the distal end of the card with an overlap of 2 mm on the nitrocellulose membrane. The obtained cards were dried at 37° C. in a dry atmosphere (0% relative humidity). The card was cut in strips of 5.2 mm width and kept at a dry atmosphere (0% relative humidity).
# Streptavidin-coated gold particles were synthesized by reacting colloidal gold (diameter 40 nm; 1 OD/ml) with 10 μg/ml streptavidin. Next, the obtained solution was concentrated by tangential flow filtration, washed and stored in a Tris buffer (pH 8) including NaCN. Penicillin binding protein purified from Bacillus stearothermophilus was biotinylated (1:4) with D-biotinyl-epsilon-aminocaproic acid-N-hydroxysuccinimide ester. Next, the penicillin binding protein-gold conjugate was synthesized by reacting 1.5 μg biotinylated penicillin binding protein with 1 OD streptavidin-coated gold particles for 1 hour, followed by centrifugation at 10,000×g for 5 minutes and resuspension of the obtained pellet in 45 mM bicarbonate buffer comprising 0.1% w/v Triton X-100 (pH 9.6).
# Thereafter, 140-200 mOD of the penicillin binding protein-gold conjugate and 5-20 mOD of the IgY-gold conjugate was solubilized in 100 μl buffer (80 mM Tris buffer comprising 0.01% w/v Triton-X-100, 0.4% w/v BSA, 5% v/v glycerin and 2% w/v saccharose (pH 8.5)) and 0.75 μl of the solution was dispensed per tube and dried for 12 hours at 40° C. The obtained tubes were sealed.
# 150 μl of spiked milk was added per tube containing the dried conjugates. The concentration of penicillin G in the added milk varied from 0 to 4 ng/g (tube 1: 0 ng/g; […]; tube 2: 2 ng/g; tube 3: 3 ng/g; and tube 4: 4 ng/g). The obtained liquid composition was incubated for 2 minutes at 64° C. in an incubator. A test device was put into the tube and incubated for 3 minutes at 64° C. in the incubator. The result was read by eye.
# The test was done essentially as described in Example 3, with the proviso that different antibiotics at different concentrations were tested.
smiles,measurement,setting,value
Cc1onc(-c2ccccc2Cl)c1C(=O)N[C@@H]1C(=O)N2[C@@H]1SC(C)(C)[C@@H]2C(=O)O [Cloxacillin],Intensity of detection zone,Cloxacillin 32.5 ng/g in milk,1
same,Intensity of detection zone,Cloxacillin 43.2 ng/g in milk,0
same,Intensity of detection zone,Cloxacillin 53.9 ng/g in milk,0
same,Intensity of detection zone,Cloxacillin 64.6 ng/g in milk,0
same,Intensity of detection zone,Cloxacillin 75.3 ng/g in milk,0
CO/N=C(\C(=O)N[C@@H]1C(=O)N2C(C(=O)O)=C(CSC(=O)c3ccco3)CS[C@H]12)c1csc(N)n1 [Ceftiofur],Intensity of detection zone,Ceftiofur 4.0 ng/g in milk,2
same,Intensity of detection zone,Ceftiofur 5.1 ng/g in milk,1
same,Intensity of detection zone,Ceftiofur 6.2 ng/g in milk,0
same,Intensity of detection zone,Ceftiofur 7.3 ng/g in milk,0
same,Intensity of detection zone,Ceftiofur 8.4 ng/g in milk,0
Cc1onc(-c2ccccc2)c1C(=O)N[C@@H]1C(=O)N2[C@@H]1SC(C)(C)[C@@H]2C(=O)O [Oxacillin],Intensity of detection zone,Oxacillin 27.0 ng/g in milk,2
same,Intensity of detection zone,Oxacillin 34.8 ng/g in milk,2
same,Intensity of detection zone,Oxacillin 42.6 ng/g in milk,1
same,Intensity of detection zone,Oxacillin 50.4 ng/g in milk,0
same,Intensity of detection zone,Oxacillin 58.2 ng/g in milk,0
CC1=C(C(=O)O)N2C(=O)[C@@H](NC(=O)[C@H](N)c3ccccc3)[C@H]2SC1 [Cefalexin],Intensity of detection zone,Cefalexin 34.0 ng/g in milk,2
same,Intensity of detection zone,Cefalexin 43.0 ng/g in milk,1
same,Intensity of detection zone,Cefalexin 52.0 ng/g in milk,0
same,Intensity of detection zone,Cefalexin 61.0 ng/g in milk,0
same,Intensity of detection zone,Cefalexin 70.0 ng/g in milk,0
NC(=O)c1cc[n+](CC2=C(C(=O)[O-])N3C(=O)[C@@H](NC(=O)Cc4cccs4)[C@H]3SC2)cc1 [Cefalonium],Intensity of detection zone,Cefalonium 3.2 ng/g in milk,2
same,Intensity of detection zone,Cefalonium 4.0 ng/g in milk,1
same,Intensity of detection zone,Cefalonium 4.8 ng/g in milk,0
same,Intensity of detection zone,Cefalonium 5.6 ng/g in milk,0
same,Intensity of detection zone,Cefalonium 6.4 ng/g in milk,0
Cc1onc(-c2c(Cl)cccc2Cl)c1C(=O)N[C@@H]1C(=O)N2[C@@H]1SC(C)(C)[C@@H]2C(=O)O [Dicloxacillin],Intensity of detection zone,Dicloxacillin 15.0 ng/g in milk,3
same,Intensity of detection zone,Dicloxacillin 20.0 ng/g in milk,2
same,Intensity of detection zone,Dicloxacillin 25.0 ng/g in milk,2
same,Intensity of detection zone,Dicloxacillin 30.0 ng/g in milk,1
same,Intensity of detection zone,Dicloxacillin 35.0 ng/g in milk,0
CCOc1ccc2ccccc2c1C(=O)N[C@@H]1C(=O)N2[C@@H]1SC(C)(C)[C@@H]2C(=O)O [Nafcillin],Intensity of detection zone,Nafcillin 40.0 ng/g in milk,3
same,Intensity of detection zone,Nafcillin 50.5 ng/g in milk,2
same,Intensity of detection zone,Nafcillin 61.0 ng/g in milk,1
same,Intensity of detection zone,Nafcillin 71.5 ng/g in milk,0
same,Intensity of detection zone,Nafcillin 82.0 ng/g in milk,0
CC1(C)S[C@@H]2[C@H](NC(=O)[C@H](N)c3ccccc3)C(=O)N2[C@H]1C(=O)O [Ampicillin],Intensity of detection zone,Ampicillin 5.3 ng/g in milk,2
same,Intensity of detection zone,Ampicillin 6.9 ng/g in milk,1
same,Intensity of detection zone,Ampicillin 8.5 ng/g in milk,0
same,Intensity of detection zone,Ampicillin 10.1 ng/g in milk,0
same,Intensity of detection zone,Ampicillin 11.7 ng/g in milk,0
CO/N=C(\C(=O)N[C@@H]1C(=O)N2C(C(=O)[O-])=C(C[n+]3cccc4c3CCCC4)CS[C@H]12)c1csc(N)n1 [Cefquinome],Intensity of detection zone,Cefquinome 12.5 ng/g in milk,2
same,Intensity of detection zone,Cefquinome 15.8 ng/g in milk,1
same,Intensity of detection zone,Cefquinome 19.1 ng/g in milk,0
same,Intensity of detection zone,Cefquinome 22.4 ng/g in milk,0
same,Intensity of detection zone,Cefquinome 25.7 ng/g in milk,0
CCN1CCN(C(=O)N[C@@H](C(=O)N[C@@H]2C(=O)N3C(C(=O)O)=C(CSc4nnnn4C)CS[C@H]23)c2ccc(O)cc2)C(=O)C1=O [Cefoperazone],Intensity of detection zone,Cefoperazone 4.0 ng/g in milk,2
same,Intensity of detection zone,Cefoperazone 4.9 ng/g in milk,2
same,Intensity of detection zone,Cefoperazone 5.8 ng/g in milk,1
same,Intensity of detection zone,Cefoperazone 6.7 ng/g in milk,1
same,Intensity of detection zone,Cefoperazone 7.6 ng/g in milk,0
Cc1nnc(SCC2=C(C(=O)O)N3C(=O)[C@@H](NC(=O)Cn4cnnn4)[C@H]3SC2)s1 [Cefazolin],Intensity of detection zone,Cefazolin 10.0 ng/g in milk,2
same,Intensity of detection zone,Cefazolin 12.5 ng/g in milk,1
same,Intensity of detection zone,Cefazolin 15.0 ng/g in milk,0
same,Intensity of detection zone,Cefazolin 17.5 ng/g in milk,0
same,Intensity of detection zone,Cefazolin 20.0 ng/g in milk,0
CC1(C)S[C@@H]2[C@H](NC(=O)[C@H](N)c3ccc(O)cc3)C(=O)N2[C@H]1C(=O)O [Amoxicillin],Intensity of detection zone,Amoxicillin 3.3 ng/g in milk,2
same,Intensity of detection zone,Amoxicillin 4.3 ng/g in milk,1
same,Intensity of detection zone,Amoxicillin 5.3 ng/g in milk,1
same,Intensity of detection zone,Amoxicillin 6.3 ng/g in milk,0
same,Intensity of detection zone,Amoxicillin 7.3 ng/g in milk,0
